From the supplement of paper PMC10307832

How the values were obtained:
Assay in all cases: relative viability (nuclei count vs DMSO), 5 days (fraction); higher = more cells survive
[1] = compound: C1=CC=C2C(=C1)N=C(S2)C(C#N)C3=NC(=NC=C3)NCCC4=CN=CC=C4 + CC(=O)Nc1cccc(-n2c(=O)n(C3CC3)c(=O)c3c(Nc4ccc(I)cc4F)n(C)c(=O)c(C)c32)c1 [Trametinib] (partner 0.02 µM)
Method in brief: (§1)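 Lung cancer cell lines were pin-tool dosed in 1536-well plates on the day after seeding, with either a lone drug or a fixed anchor-drug dose plus five library-drug doses (not always all listed) in √10 steps. Nuclei were counted on 4× images after 5 days. Relative viability is the ratio of treated-well to vehicle-well nuclei counts, with each value a median of duplicate plates.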

[2] = compound: C1=CC=C2C(=C1)N=C(S2)C(C#N)C3=NC(=NC=C3)NCCC4=CN=CC=C4 + COc1cc2c(Oc3ccc(NC(=O)C4(C(=O)Nc5ccc(F)cc5)CC4)cc3F)ccnc2cc1OCCCN1CCOCC1 [Foretinib] (partner 0.25 µM)
Method in brief: as §1

NVP-TAE684 + Vorinostat = compound: COc1cc(N2CCC(N3CCN(C)CC3)CC2)ccc1Nc1ncc(Cl)c(Nc2ccccc2S(=O)(=O)C(C)C)n1 [NVP-TAE684] + O=C(CCCCCCC(=O)Nc1ccccc1)NO [Vorinostat] (partner 1 µM)
Method in brief: as §1

Vandetanib + Trametinib = compound: COc1cc2/c(=N/c3ccc(Br)cc3F)nc[nH]c2cc1OCC1CCN(C)CC1 [Vandetanib] + CC(=O)Nc1cccc(-n2c(=O)n(C3CC3)c(=O)c3c(Nc4ccc(I)cc4F)n(C)c(=O)c(C)c32)c1 [Trametinib] (partner 0.02 µM)
Method in brief: as §1

| Cell Line | relative viability ([1]; first compound 0.005 µM) | relative viability ([1]; first compound 0.01581 µM) | relative viability ([1]; first compound 0.05 µM) | relative viability ([1]; first compound 0.1581 µM) | relative viability ([1]; first compound 0.5 µM) | relative viability ([2]; first compound 0.005 µM) | relative viability ([2]; first compound 0.01581 µM) | relative viability ([2]; first compound 0.05 µM) | relative viability ([2]; first compound 0.1581 µM) | relative viability ([2]; first compound 0.5 µM) | relative viability (NVP-TAE684 + Vorinostat; first compound 0.2 µM) | relative viability (NVP-TAE684 + Vorinostat; first compound 0.6325 µM) | relative viability (NVP-TAE684 + Vorinostat; first compound 2 µM) | relative viability (Vandetanib + Trametinib; first compound 0.02 µM) | relative viability (Vandetanib + Trametinib; first compound 0.06325 µM) | relative viability (Vandetanib + Trametinib; first compound 0.2 µM) | relative viability (Vandetanib + Trametinib; first compound 0.6325 µM) | relative viability (Vandetanib + Trametinib; first compound 2 µM) |
| --- | --- | --- | --- | --- | --- | --- | --- | --- | --- | --- | --- | --- | --- | --- | --- | --- | --- | --- |
| NCI-H2405 | 0.582 | 0.645 | 0.63 | 0.643 | 0.599 | 1.02 | 1.04 | 1.04 | 1.07 | 1 | 1.09 | 0.896 | 0.518 | 0.63 | 0.458 | 0.714 | 0.653 | 0.616 |
| NCI-H2087 | 0.222 | 0.201 | 0.203 | 0.212 | 0.186 | 1.08 | 1.14 | 1.1 | 1.12 | 0.969 | 0.917 | 0.492 | 0.601 | 0.211 | 0.221 | 0.23 | 0.213 | 0.2 |
| NCI-H2023 | 0.602 | 0.532 | 0.547 | 0.538 | 0.489 | 0.708 | 0.933 | 0.857 | 1.09 | 0.907 | 0.646 | 0.634 | 0.102 | 0.498 | 0.507 |  | 0.556 | 0.49 |
| NCI-H3122 | 0.178 | 0.238 | 0.221 | 0.216 | 0.197 | 0.839 | 0.87 | 0.917 | 1.05 | 0.969 | 0.273 | 0.229 | 0.103 | 0.208 | 0.186 | 0.113 | 0.259 | 0.204 |
| ChaGo-K-1 | 0.683 | 0.949 | 0.913 | 0.957 | 0.715 |  | 0.954 | 0.838 | 1.06 | 0.932 | 0.786 | 0.691 | 0.518 | 0.878 | 0.87 | 0.253 | 0.929 | 0.866 |
| NCI-H2347 | 0.282 | 0.268 | 0.296 | 0.3 | 0.267 | 1.1 | 0.821 |  | 0.662 | 1.17 | 0.538 | 0.588 | 0.44 | 0.28 | 0.278 | 0.254 | 0.283 | 0.28 |
| NCI-H460 |  | 0.137 | 0.131 | 0.175 | 0.141 | 0.969 | 1.15 | 1.06 | 1.08 | 1.08 |  | 0.806 | 0.106 | 0.141 | 0.147 | 0.157 | 0.148 | 0.123 |
| HCC-827 | 0.503 | 0.534 | 0.497 | 0.486 | 0.497 | 1.06 | 1.06 | 1.06 | 1.16 | 1.13 | 0.754 | 0.762 | 0.793 | 0.568 | 0.457 | 0.501 | 0.266 | 0.16 |
| HOP-62 | 0.359 | 0.394 | 0.394 | 0.37 | 0.366 | 0.891 | 1.14 | 1.14 | 1.26 | 0.952 | 0.566 | 0.57 | 0.553 | 0.354 | 0.368 | 0.36 | 0.4 | 0.363 |
